Experiments:
Test in all cases: KinomeScan
Format in all cases: binding
Details in all cases: 1uM
MEK6 = target: T1, MEK6 (Homo sapiens, UniProt P52564)
T1 construct: purchased DiscoveRx KINOMEscan

CSNK1E = target: T2, CSNK1E (Homo sapiens, UniProt P49674)
T2 construct: purchased DiscoveRx KINOMEscan

CSNK1A1L = target: T3, CSNK1A1L (Homo sapiens, UniProt Q8N752)
T3 construct: purchased DiscoveRx KINOMEscan

CAMK4 = target: T4, CAMK4 (Homo sapiens, UniProt Q16566)
T4 construct: purchased DiscoveRx KINOMEscan

PRKR = target: T5, PRKR (Homo sapiens, UniProt P19525)
T5 construct: purchased DiscoveRx KINOMEscan

RET = target: T6, RET (Homo sapiens, UniProt P07949)
T6 construct: purchased DiscoveRx KINOMEscan

CDKL2 = target: T7, CDKL2 (Homo sapiens, UniProt Q92772)
T7 construct: purchased DiscoveRx KINOMEscan

STK36 = target: T8, STK36 (Homo sapiens, UniProt Q9NRP7)
T8 construct: purchased DiscoveRx KINOMEscan

MAP3K4 = target: T9, MAP3K4 (Homo sapiens, UniProt Q9Y6R4)
T9 construct: purchased DiscoveRx KINOMEscan

ANKK1 = target: T10, ANKK1 (Homo sapiens, UniProt Q8NFD2)
T10 construct: purchased DiscoveRx KINOMEscan

PIK3CB = target: T11, PIK3CB (Homo sapiens, UniProt P42338)
T11 construct: purchased DiscoveRx KINOMEscan

FRK = target: T12, FRK (Homo sapiens, UniProt P42685)
T12 construct: purchased DiscoveRx KINOMEscan

VEGFR2 = target: T13, VEGFR2 (Homo sapiens, UniProt P35968)
T13 construct: purchased DiscoveRx KINOMEscan

ERK5 = target: T14, ERK5 (Homo sapiens, UniProt Q13164)
T14 construct: purchased DiscoveRx KINOMEscan

MYLK2 = target: T15, MYLK2 (Homo sapiens, UniProt Q9H1R3)
T15 construct: purchased DiscoveRx KINOMEscan

DDR1 = target: T16, DDR1 (Homo sapiens, UniProt Q08345)
T16 construct: purchased DiscoveRx KINOMEscan

MRCKB = target: T17, MRCKB (Homo sapiens, UniProt Q9Y5S2)
T17 construct: purchased DiscoveRx KINOMEscan

ERK3 = target: T18, ERK3 (Homo sapiens, UniProt Q16659)
T18 construct: purchased DiscoveRx KINOMEscan

[1] = target: T19, RSK3(Kin.Dom.1-N-terminal) (Homo sapiens, UniProt Q15349)
T19 construct: RSK3(Kin.Dom.1-N-terminal); purchased DiscoveRx KINOMEscan

GRK1 = target: T20, GRK1 (Homo sapiens, UniProt Q15835)
T20 construct: purchased DiscoveRx KINOMEscan
T20 sequence (Q15835 whole entry): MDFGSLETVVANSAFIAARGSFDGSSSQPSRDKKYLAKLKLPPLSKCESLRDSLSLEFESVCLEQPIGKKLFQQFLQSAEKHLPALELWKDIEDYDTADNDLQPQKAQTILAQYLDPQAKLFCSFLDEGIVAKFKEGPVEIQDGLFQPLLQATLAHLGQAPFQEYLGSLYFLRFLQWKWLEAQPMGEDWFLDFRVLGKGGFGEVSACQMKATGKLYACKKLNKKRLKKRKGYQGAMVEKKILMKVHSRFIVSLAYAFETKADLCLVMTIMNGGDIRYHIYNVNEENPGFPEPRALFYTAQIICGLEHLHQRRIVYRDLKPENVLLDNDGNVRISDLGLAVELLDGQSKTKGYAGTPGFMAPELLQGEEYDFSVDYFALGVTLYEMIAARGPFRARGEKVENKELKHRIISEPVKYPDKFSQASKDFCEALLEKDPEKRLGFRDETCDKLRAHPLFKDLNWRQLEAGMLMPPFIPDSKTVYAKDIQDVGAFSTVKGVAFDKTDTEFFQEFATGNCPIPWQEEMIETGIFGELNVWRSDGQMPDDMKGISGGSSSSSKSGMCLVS

TAOK1 = target: T21, TAOK1 (Homo sapiens, UniProt Q7L7X3)
T21 construct: purchased DiscoveRx KINOMEscan

PRKCD = target: T22, PRKCD (Homo sapiens, UniProt Q05655)
T22 construct: purchased DiscoveRx KINOMEscan

MET(Y1235D) = target: T23, MET(Y1235D) (Homo sapiens, UniProt P08581, Y1235D)
T23 construct: purchased DiscoveRx KINOMEscan
T23 sequence (P08581 25-1390 Y1235D): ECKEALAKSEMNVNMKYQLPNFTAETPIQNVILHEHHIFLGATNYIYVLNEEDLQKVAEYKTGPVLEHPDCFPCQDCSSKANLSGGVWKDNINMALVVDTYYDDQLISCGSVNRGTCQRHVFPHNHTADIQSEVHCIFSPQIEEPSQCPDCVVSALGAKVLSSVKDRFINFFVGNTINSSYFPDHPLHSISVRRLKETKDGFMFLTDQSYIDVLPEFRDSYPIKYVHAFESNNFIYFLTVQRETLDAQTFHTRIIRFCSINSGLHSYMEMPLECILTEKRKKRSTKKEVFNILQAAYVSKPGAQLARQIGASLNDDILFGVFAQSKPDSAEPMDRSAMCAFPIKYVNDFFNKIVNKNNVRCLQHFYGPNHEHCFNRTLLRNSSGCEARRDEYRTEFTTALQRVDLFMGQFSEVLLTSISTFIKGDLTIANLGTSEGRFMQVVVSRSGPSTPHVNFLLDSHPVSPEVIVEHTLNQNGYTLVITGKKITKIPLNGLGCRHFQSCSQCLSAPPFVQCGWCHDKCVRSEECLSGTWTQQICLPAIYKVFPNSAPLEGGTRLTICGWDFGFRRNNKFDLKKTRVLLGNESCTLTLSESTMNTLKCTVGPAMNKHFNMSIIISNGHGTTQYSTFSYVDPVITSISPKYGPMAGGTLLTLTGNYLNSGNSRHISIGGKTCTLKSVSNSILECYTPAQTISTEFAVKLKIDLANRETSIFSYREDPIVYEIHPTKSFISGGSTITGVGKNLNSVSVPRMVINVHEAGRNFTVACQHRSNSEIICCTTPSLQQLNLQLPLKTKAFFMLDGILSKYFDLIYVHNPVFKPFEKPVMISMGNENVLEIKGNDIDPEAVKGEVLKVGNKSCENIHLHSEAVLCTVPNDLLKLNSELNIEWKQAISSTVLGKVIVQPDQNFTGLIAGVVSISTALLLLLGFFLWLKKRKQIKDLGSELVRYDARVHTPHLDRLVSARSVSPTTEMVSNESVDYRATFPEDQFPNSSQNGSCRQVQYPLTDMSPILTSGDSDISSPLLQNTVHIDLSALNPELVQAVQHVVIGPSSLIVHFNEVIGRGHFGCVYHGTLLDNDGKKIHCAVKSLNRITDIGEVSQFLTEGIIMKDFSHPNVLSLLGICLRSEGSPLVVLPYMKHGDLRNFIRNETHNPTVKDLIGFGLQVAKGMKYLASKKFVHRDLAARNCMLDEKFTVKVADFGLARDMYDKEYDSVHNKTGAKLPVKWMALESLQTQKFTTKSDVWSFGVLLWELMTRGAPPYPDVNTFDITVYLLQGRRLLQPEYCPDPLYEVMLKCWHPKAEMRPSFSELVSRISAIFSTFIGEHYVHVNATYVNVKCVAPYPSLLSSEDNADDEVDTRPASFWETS

[2] = target: T24, RSK3(Kin.Dom.2-C-terminal) (Homo sapiens, UniProt Q15349)
T24 construct: RSK3(Kin.Dom.2-C-terminal); purchased DiscoveRx KINOMEscan

FAK = target: T25, FAK (Homo sapiens, UniProt Q05397)
T25 construct: purchased DiscoveRx KINOMEscan

PIK3CD = target: T26, PIK3CD (Homo sapiens, UniProt O00329)
T26 construct: purchased DiscoveRx KINOMEscan

EPHA3 = target: T27, EPHA3 (Homo sapiens, UniProt P29320)
T27 construct: purchased DiscoveRx KINOMEscan

LRRK2(G2019S) = target: T28, LRRK2(G2019S) (Homo sapiens, UniProt Q5S007, G2019S)
T28 construct: purchased DiscoveRx KINOMEscan

MEK5 = target: T29, MEK5 (Homo sapiens, UniProt Q13163)
T29 construct: purchased DiscoveRx KINOMEscan

YSK4 = target: T30, YSK4 (Homo sapiens, UniProt Q56UN5)
T30 construct: purchased DiscoveRx KINOMEscan

PLK3 = target: T31, PLK3 (Homo sapiens, UniProt Q9H4B4)
T31 construct: purchased DiscoveRx KINOMEscan

GSK3B = target: T32, GSK3B (Homo sapiens, UniProt P49841)
T32 construct: purchased DiscoveRx KINOMEscan

PIK3CA(C420R) = target: T33, PIK3CA(C420R) (Homo sapiens, UniProt P42336, C420R)
T33 construct: purchased DiscoveRx KINOMEscan
T33 sequence (P42336 whole entry C420R): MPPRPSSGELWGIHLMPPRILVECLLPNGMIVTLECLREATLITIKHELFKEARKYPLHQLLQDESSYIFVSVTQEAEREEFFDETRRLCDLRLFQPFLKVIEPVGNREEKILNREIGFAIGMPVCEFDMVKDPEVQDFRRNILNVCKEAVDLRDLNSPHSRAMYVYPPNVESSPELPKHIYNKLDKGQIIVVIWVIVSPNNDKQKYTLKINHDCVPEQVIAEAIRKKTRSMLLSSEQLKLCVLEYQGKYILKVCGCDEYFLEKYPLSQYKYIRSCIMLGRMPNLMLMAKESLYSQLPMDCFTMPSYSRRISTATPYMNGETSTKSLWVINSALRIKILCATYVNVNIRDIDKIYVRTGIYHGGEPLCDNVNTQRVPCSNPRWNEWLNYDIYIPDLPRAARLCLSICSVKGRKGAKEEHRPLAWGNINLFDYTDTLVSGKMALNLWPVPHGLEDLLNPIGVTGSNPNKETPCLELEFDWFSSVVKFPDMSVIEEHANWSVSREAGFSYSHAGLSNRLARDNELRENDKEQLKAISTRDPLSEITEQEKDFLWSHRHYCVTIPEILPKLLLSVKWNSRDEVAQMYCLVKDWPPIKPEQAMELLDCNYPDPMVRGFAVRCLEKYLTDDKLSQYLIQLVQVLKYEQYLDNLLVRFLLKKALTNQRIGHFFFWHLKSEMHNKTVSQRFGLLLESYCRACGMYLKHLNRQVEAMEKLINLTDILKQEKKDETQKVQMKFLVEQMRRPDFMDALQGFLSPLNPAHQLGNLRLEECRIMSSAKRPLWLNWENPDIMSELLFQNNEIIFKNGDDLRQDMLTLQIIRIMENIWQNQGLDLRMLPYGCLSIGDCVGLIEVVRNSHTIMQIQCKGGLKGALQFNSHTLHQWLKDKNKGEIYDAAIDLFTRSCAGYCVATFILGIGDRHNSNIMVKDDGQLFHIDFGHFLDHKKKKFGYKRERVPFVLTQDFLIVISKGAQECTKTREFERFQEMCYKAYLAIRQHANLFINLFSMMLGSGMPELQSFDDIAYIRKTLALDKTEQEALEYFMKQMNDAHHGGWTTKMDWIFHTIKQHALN

TRPM6 = target: T34, TRPM6 (Homo sapiens, UniProt Q9BX84)
T34 construct: purchased DiscoveRx KINOMEscan

TAOK2 = target: T35, TAOK2 (Homo sapiens, UniProt Q9UL54)
T35 construct: purchased DiscoveRx KINOMEscan

MST1 = target: T36, MST1 (Homo sapiens, UniProt Q13043)
T36 construct: purchased DiscoveRx KINOMEscan

FLT3(D835H) = target: T37, FLT3(D835H) (Homo sapiens, UniProt P36888, D835H)
T37 construct: purchased DiscoveRx KINOMEscan

INSRR = target: T38, INSRR (Homo sapiens, UniProt P14616)
T38 construct: purchased DiscoveRx KINOMEscan

SgK110 = target: T39, SgK110 (Homo sapiens, UniProt P0C264)
T39 construct: purchased DiscoveRx KINOMEscan

KIT(D816V) = target: T40, KIT(D816V) (Homo sapiens, UniProt P10721, D816V)
T40 construct: purchased DiscoveRx KINOMEscan
T40 sequence (P10721 26-976 D816V): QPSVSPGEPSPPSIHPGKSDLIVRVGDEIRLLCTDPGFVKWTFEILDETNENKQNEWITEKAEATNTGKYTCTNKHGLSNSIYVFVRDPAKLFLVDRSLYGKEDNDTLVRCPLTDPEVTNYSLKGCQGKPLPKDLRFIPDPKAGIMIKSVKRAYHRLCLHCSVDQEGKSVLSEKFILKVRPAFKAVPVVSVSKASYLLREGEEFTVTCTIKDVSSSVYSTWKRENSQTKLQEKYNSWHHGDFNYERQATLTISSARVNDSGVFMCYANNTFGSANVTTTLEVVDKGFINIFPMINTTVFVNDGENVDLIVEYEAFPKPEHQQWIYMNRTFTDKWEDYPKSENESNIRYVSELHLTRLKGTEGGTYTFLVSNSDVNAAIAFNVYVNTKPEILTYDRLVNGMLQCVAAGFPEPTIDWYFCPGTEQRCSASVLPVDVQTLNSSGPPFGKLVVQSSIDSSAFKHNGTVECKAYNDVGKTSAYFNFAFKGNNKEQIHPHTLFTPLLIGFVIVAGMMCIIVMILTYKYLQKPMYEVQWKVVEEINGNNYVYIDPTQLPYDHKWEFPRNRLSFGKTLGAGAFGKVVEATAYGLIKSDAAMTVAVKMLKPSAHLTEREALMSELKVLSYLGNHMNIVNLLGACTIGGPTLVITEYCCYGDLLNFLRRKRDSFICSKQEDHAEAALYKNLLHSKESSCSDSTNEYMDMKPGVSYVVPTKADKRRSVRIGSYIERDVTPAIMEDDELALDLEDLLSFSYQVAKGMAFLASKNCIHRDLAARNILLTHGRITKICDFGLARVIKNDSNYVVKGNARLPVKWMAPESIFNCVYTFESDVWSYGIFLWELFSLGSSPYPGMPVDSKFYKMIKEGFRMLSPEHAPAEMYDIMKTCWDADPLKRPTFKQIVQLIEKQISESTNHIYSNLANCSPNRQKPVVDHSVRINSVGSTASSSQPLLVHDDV

CAMK2D = target: T41, CAMK2D (Homo sapiens, UniProt Q13557)
T41 construct: purchased DiscoveRx KINOMEscan

DAPK3 = target: T42, DAPK3 (Homo sapiens, UniProt O43293)
T42 construct: purchased DiscoveRx KINOMEscan

EPHA2 = target: T43, EPHA2 (Homo sapiens, UniProt P29317)
T43 construct: purchased DiscoveRx KINOMEscan
T43 sequence (P29317 24-976): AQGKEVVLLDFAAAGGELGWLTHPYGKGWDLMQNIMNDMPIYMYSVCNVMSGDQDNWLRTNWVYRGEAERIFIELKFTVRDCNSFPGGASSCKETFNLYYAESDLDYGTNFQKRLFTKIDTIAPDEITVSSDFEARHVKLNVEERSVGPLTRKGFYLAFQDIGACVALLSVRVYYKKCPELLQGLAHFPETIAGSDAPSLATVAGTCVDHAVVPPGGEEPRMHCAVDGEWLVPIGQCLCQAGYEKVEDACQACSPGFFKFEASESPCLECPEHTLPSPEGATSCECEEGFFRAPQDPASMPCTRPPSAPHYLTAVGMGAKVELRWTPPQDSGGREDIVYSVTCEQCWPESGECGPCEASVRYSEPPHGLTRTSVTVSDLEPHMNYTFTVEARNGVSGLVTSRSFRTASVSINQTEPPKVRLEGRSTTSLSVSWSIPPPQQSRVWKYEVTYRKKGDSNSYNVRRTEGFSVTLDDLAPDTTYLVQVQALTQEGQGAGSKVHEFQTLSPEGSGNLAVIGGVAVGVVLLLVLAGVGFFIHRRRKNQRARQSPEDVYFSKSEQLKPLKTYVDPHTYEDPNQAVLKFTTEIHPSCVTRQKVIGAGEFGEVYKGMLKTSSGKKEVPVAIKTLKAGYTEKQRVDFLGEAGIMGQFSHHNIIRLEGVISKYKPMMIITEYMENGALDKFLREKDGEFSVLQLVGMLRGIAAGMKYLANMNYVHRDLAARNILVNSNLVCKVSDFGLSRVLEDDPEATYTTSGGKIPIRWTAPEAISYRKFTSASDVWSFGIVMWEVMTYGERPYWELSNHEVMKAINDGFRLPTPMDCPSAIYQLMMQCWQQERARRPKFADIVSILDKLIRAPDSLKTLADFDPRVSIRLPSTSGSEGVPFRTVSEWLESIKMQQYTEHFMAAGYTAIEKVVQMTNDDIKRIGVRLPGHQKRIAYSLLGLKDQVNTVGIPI

Cc1nc(NC(=O)[C@@H](N)C(C)C)sc1-c1cnc(Cl)c(NS(=O)(=O)c2ccccc2)c1 [PI3KD-IN-015]
KinomeScan MEK6 (MEK6): 100 | KinomeScan CSNK1E (CSNK1E): 100 | KinomeScan CSNK1A1L (CSNK1A1L): 100 | KinomeScan CAMK4 (CAMK4): 89 | KinomeScan PRKR (PRKR): 100 | KinomeScan RET (RET): 100 | KinomeScan CDKL2 (CDKL2): 100 | KinomeScan STK36 (STK36): 100 | KinomeScan MAP3K4 (MAP3K4): 100 | KinomeScan ANKK1 (ANKK1): 100 | KinomeScan PIK3CB (PIK3CB): 0 | KinomeScan FRK (FRK): 97 | KinomeScan VEGFR2 (VEGFR2): 99 | KinomeScan ERK5 (ERK5): 100 | KinomeScan MYLK2 (MYLK2): 84 | KinomeScan DDR1 (DDR1): 100 | KinomeScan MRCKB (MRCKB): 91 | KinomeScan ERK3 (ERK3): 96 | KinomeScan RSK3(Kin.Dom.1-N-terminal) [1]: 100 | KinomeScan GRK1 (GRK1): 99 | KinomeScan TAOK1 (TAOK1): 96 | KinomeScan PRKCD (PRKCD): 100 | KinomeScan MET(Y1235D) (MET(Y1235D)): 100 | KinomeScan RSK3(Kin.Dom.2-C-terminal) [2]: 99 | KinomeScan FAK (FAK): 80 | KinomeScan PIK3CD (PIK3CD): 0 | KinomeScan EPHA3 (EPHA3): 86 | KinomeScan LRRK2(G2019S) (LRRK2(G2019S)): 100 | KinomeScan MEK5 (MEK5): 94 | KinomeScan YSK4 (YSK4): 100 | KinomeScan PLK3 (PLK3): 76 | KinomeScan GSK3B (GSK3B): 97 | KinomeScan PIK3CA(C420R) (PIK3CA(C420R)): 4.5 | KinomeScan TRPM6 (TRPM6): 100 | KinomeScan TAOK2 (TAOK2): 96 | KinomeScan MST1 (MST1): 83 | KinomeScan FLT3(D835H) (FLT3(D835H)): 94 | KinomeScan INSRR (INSRR): 97 | KinomeScan SgK110 (SgK110): 100 | KinomeScan KIT(D816V) (KIT(D816V)): 100 | KinomeScan CAMK2D (CAMK2D): 95 | KinomeScan DAPK3 (DAPK3): 91 | KinomeScan EPHA2 (EPHA2): 100
